PMC6261607, “Novel high–throughput myofibroblast assays identify agonists with therapeutic potential in pulmonary fibrosis that act via EP2 and EP4 receptors” (PLoS ONE, 2018)
Structures can show the parent of a compound that is named as a salt. Where two headings read alike, the source gives them in different places.

What was measured:
[1] = system: normal human lung fibroblasts (NHLF); test: Phenotypic high-content assay (HCA) of TGF–β1–induced fibroblast–to–myofibroblast differentiation; type: cell-based; details: for IC50: read-out: HCA IC50; for inhibition at 10 µM: read-out: Effect HCA at 10 µM [% inhibition]
Protocol: (§1) The plate was washed 3 times with starvation medium, e.g. fibroblast basal medium (FBM, Lonza) supplemented with 0.1% faf BSA, 100 units / ml of penicillin and 100 μg / ml of streptomycin and 250 ng / ml amphotericin B, and then starved for 24 h in 30 μl volume. NHLF were differentiated into myofibroblasts by incubation with 5 ng / ml TGF–β1 (from a stock of 20 μg / ml in 4 mM HCl, 1 mg / ml BSA) for 48 h. Compounds were prepared as 5x stocks in starvation medium and added to the starved cells to a final 1x concentration concomitant with TGF–β1 addition. The final DMSO concentration in the assay was 0.6% in all wells. 48 h after TGF–β1 addition, the medium was removed and the cells were fixed in methanol for 10 min at room temperature (RT). After fixation, cells were washed 3 times with 1 x PBS and either stored at 4°C for up to 3 days or further processed. […] Images were acquired on the Opera Phenix confocal high–content screening system (Perkin Elmer) using the 20–x water immersion lens.
(§2) DAPI stained nuclei were used to identify cells. α–SMA and FN regions were then identified and mapped to the corresponding nuclei for background correction, cell segmentation and cell feature computation to identify, classify and weigh over 400 features per cell. The computed features (S1 Table) comprise, but are not limited to, granularity, intensity, texture, area, shape and solidity of a cell in both α–SMA–and FN–expressing regions. The 0% compound effect (5 ng / ml TGF–β1) and the 100% compound effect (0 ng / ml TGF–β1) controls, were used to train and validate a support vector machine (SVM), a supervised learning model with associated learning algorithm that, once successfully validated, was applied to every cell in every well of the assayed microtiter plate. The SVM allowed autonomous weighting and classification of the characteristics and thus enabled the classifier to decide which characteristics were most relevant for the differentiation of the cell types. […] The classification of each cell was aggregated to a cell type ratio per well, represented as the computed percentage effect value per well indicative of the degree of myofibroblast differentiation. E.g. 100% equals complete myofibroblast differentiation, 0% indicates a pure fibroblast population without any signs of differentiation.

[2] = system: normal human lung fibroblasts (NHLF); test: Nuclear count in the HCA, standard assay; type: cell-based; details: read-out: Nuclear count IC50
Protocol: as §1, §2

[3] = system: NHLF cells; test: RealTime–Glo MT viability assay
Protocol: The effect of compounds on cell viability was assessed by quantifying the relative metabolic activity of cells using the non–lytic luminescence–based RealTime–Glo™ MT cell viability assay (Promega) according to the manufacturer’s instructions.

[4] = Homo sapiens, Fibroblast, 48 h, NHLF, 5 ng/ml TGF–β1 for 48 h, compound added with TGF–β1, mean ± SD
[5] = Homo sapiens, Fibroblast, 10 µM compound, 5 ng/ml TGF–β1, 48 h
[6] = Homo sapiens, Fibroblast, 48 h, standard HCA, NHLF, 5 ng/ml TGF–β1, 48 h
[7] = Homo sapiens, Fibroblast, NHLF, 5 ng/ml TGF–β1 for 48 h, compound added with TGF–β1, mean ± SD
[8] = Homo sapiens, Fibroblast, standard HCA, NHLF, 5 ng/ml TGF–β1, 48 h
[9] = 10 µM compound, 5 ng/ml TGF–β1, 48 h
[10] = NHLF, 5 ng/ml TGF–β1 for 48 h, compound added with TGF–β1, mean ± SD
[11] = standard HCA, NHLF, 5 ng/ml TGF–β1, 48 h

SMILES	IC50 [1, 4] [µM]	inhibition at 10 µM [1, 5] [%]	Effect on viability at 10 µM [% reduction] ([3]; human, 10 µM)	Effect on viability at 10 µM [% reduction] ([3]; 10 µM compound)	further results
CCCCC(=O)O[C@H]1CC[C@H]2[C@@H]3CCc4cc(O)ccc4[C@H]3CC[C@]12C [Estradiol Valerate]	9.7	66	65 % reduction		IC50 [2, 6]: 11 µM
CC(=O)O[C@H]1C[C@H](O[C@H]2[C@@H](O)C[C@H](O[C@H]3[C@@H](O)C[C@H](O[C@H]4CC[C@@]5(C)[C@H](CC[C@@H]6[C@@H]5C[C@@H](O)[C@]5(C)[C@@H](C7=CC(=O)OC7)CC[C@]65O)C4)O[C@@H]3C)O[C@@H]2C)O[C@H](C)[C@H]1O[C@@H]1O[C@H](CO)[C@@H](O)[C@H](O)[C@H]1O [Lanatoside C]		100	19 % reduction		IC50 [1, 7]: 0.035 µM; IC50 [2, 8]: > 25 µM
C=CC(=O)N1CCC[C@@H](n2nc(-c3ccc(Oc4ccccc4)cc3)c3c(N)ncnc32)C1 [PCI–32765 (Ibrutinib), Ibrutinib]			22 % reduction		
CC(C)C[C@H](NC(=O)[C@H](CCc1ccccc1)NC(=O)CN1CCOCC1)C(=O)N[C@@H](Cc1ccccc1)C(=O)N[C@@H](CC(C)C)C(=O)[C@@]1(C)CO1 [Carfilzomib (PR–171), Carfilzomib]	0.004	100	52 % reduction		
Cc1c(-c2ccc(O)cc2)n(Cc2ccc(OCCN3CCCCCC3)cc2)c2ccc(O)cc12.Cl [Bazedoxifene HCl]					Effect on viability at 10 µM [% reduction] [3]: 55 % reduction
C[C@H]1O[C@@H](O[C@H]2[C@@H](O)C[C@H](O[C@H]3[C@@H](O)C[C@H](O[C@H]4CC[C@@]5(C)[C@H](CC[C@@H]6[C@@H]5C[C@@H](O)[C@]5(C)[C@@H](C7=CC(=O)OC7)CC[C@]65O)C4)O[C@@H]3C)O[C@@H]2C)C[C@H](O)[C@@H]1O [Digoxin]			19 % reduction		inhibition at 10 µM ([1]; Homo sapiens, Fibroblast, 48 h): 87%; IC50 ([1]; Homo sapiens, Fibroblast, 48 h): 0.01 µM; IC50 ([2]; Homo sapiens, Fibroblast, 48 h): > 25 µM
CC[C@@]1(O)C(=O)OCc2c1cc1n(c2=O)Cc2cc3ccccc3nc2-1 [Camptothecine (S+)]				5	Effect HCA at 10 µM [% inhibition] [1, 9]: 105 % inhibition; IC50 [1, 10]: 0.041 µM; IC50 [2, 11]: > 25 µM
Cl.Cl.Fc1ccc(C(OCCN2CCN(CCCc3ccccc3)CC2)c2ccc(F)cc2)cc1 [GBR 12909 dihydrochloride]					Effect HCA at 10 µM [% inhibition] [1, 9]: 56 % inhibition; IC50 [1, 10]: 9.9 µM; Effect on viability at 10 µM [% reduction] [3]: 13 % reduction
CCSc1ccc2c(c1)N(CCCN1CCN(C)CC1)c1ccccc1S2.O=C(O)CC(O)C(=O)O.O=C(O)CC(O)C(=O)O [Thiethylperazine dimalate]					Effect HCA at 10 µM [% inhibition] [1, 9]: 76 % inhibition; IC50 [1, 10]: 8.5 µM; IC50 [2, 11]: 13 µM; Effect on viability at 10 µM [% reduction] [3]: 34 % reduction
C[C@]12CC[C@H](O)C[C@H]1CC[C@@H]1[C@@H]2CC[C@]2(C)[C@@H](C3=CC(=O)OC3)CC[C@]12O [Digitoxigenin]				22	inhibition at 10 µM ([1]; Homo sapiens, Fibroblast, 48 h): 93%; IC50 ([1]; Homo sapiens, Fibroblast, 48 h): 0.039 µM; IC50 ([2]; Homo sapiens, Fibroblast, 48 h): > 25 µM
CC(C)(C)c1nc(-c2cccc(NS(=O)(=O)c3c(F)cccc3F)c2F)c(-c2ccnc(N)n2)s1 [Dabrafenib (GSK2118436), Dabrafenib]	2.9	56		9	IC50 [2, 6]: > 25 µM
CC[C@H]1CN2CCc3cc(OC)c(OC)cc3[C@@H]2C[C@@H]1C[C@H]1NCCc2cc(OC)c(OC)cc21 [Emetine]	0.071	100		25	IC50 [2, 6]: > 25 µM
Clc1cc(Cl)c(OCC#CI)cc1Cl [Haloprogin]	1.3	77		61	IC50 [2, 6]: 4.5 µM
C[C@@H]1O[C@@H](O[C@@H]2C=C3CC[C@@H]4[C@H](CC[C@]5(C)[C@@H](c6ccc(=O)oc6)CC[C@]45O)[C@@]3(C)CC2)[C@H](O)[C@H](O)[C@H]1O [Proscillaridin A]		101		12	IC50 [1, 7]: 0.001 µM; IC50 [2, 8]: > 25 µM
CC(C)(C)CC(C)(C)c1ccc(OCCOCC[N+](C)(C)Cc2ccccc2)cc1 [Benzethonium chloride]				72	
Cc1cc(C#N)cc(C)c1Oc1nc(Nc2ccc(C#N)cc2)nc(N)c1Br [Etravirine (TMC125), Etravirine]	3.9	100		29	IC50 [2, 6]: > 25 µM
Cc1nc(Nc2ncc(C(=O)Nc3c(C)cccc3Cl)s2)cc(N2CCN(CCO)CC2)n1 [Dasatinib (BMS–354825), Dasatinib]	1.02	89	–10 % reduction		IC50 [2, 6]: > 25 µM
COc1ccc(CCN2CCC(Nc3nc4ccccc4n3Cc3ccc(F)cc3)CC2)cc1 [Astemizole]		105	49 % reduction		IC50 [2, 6]: 8.3 µM
COc1cccc2c1C(=O)c1c(O)c3c(c(O)c1C2=O)C[C@@](O)(C(=O)CO)C[C@@H]3O[C@H]1C[C@H](N)[C@@H](O)[C@H](C)O1 [Epirubicin hydrochloride]	1.07	93	28 % reduction		
O=C1c2c(O)ccc(O)c2C(=O)c2c(NCCNCCO)ccc(NCCNCCO)c21 [Mitoxantrone dihydrochloride]	0.62	101	31 % reduction		
COc1cccc2c1C(=O)c1c(O)c3c(c(O)c1C2=O)C[C@@](O)(C(C)=O)C[C@@H]3O[C@H]1C[C@H](N)[C@H](O)[C@H](C)O1 [Daunorubicin hydrochloride]			14 % reduction		inhibition at 10 µM ([1]; Homo sapiens, Fibroblast, 48 h): 73%; IC50 ([1]; Homo sapiens, Fibroblast, 48 h): 0.27 µM
Oc1c(Cl)cc(Cl)c(Cl)c1Cc1c(O)c(Cl)cc(Cl)c1Cl [Hexachlorophene]					inhibition at 10 µM ([1]; Homo sapiens, Fibroblast, 48 h): 93%; IC50 ([1]; Homo sapiens, Fibroblast, 48 h): 6.7 µM; IC50 ([2]; Homo sapiens, Fibroblast, 48 h): > 25 µM
O=C(CCCCCCC(=O)Nc1ccccc1)NO [Vorinostat]				24	
CN[C@@H]1C[C@@H](c2ccc(Cl)c(Cl)c2)c2ccccc21 [Indatraline hydrochloride]		67		20	IC50 [1, 7]: 8.06 µM
[H]/N=C(\N/C(=N/[H])NCCCCCCNC(=N)NC(=N)Nc1ccc(Cl)cc1)Nc1ccc(Cl)cc1 [Chlorhexidine]	5.8	80	24 % reduction		
